Results taken from PubChem BioAssay AID248 (DTP/NCI, 2004).
“And” between values parts separate entries of the source, which are not always exact repeats. Equal entries are not always repeated. Toxic doses and inconclusive results are not listed. No stated cut-off is given here; in the data, active means T/C of 150% or more; inactive means T/C below 125%.

Tested on: L1210 leukemia ip in BDF1 mice, survival T/C
Test: NCI In Vivo Anticancer Drug Screen. Data for tumor model L1210 Leukemia (intraperitoneal) in B6D2F1 (BDF1) mice
Conditions: endpoint: mean survival time, higher = longer survival
In short: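 Read-out is survival time, reported as the treated-group measurement over the vehicle-control measurement.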

[1] = dose: 100.0 mg/kg/injection, schedule: Q01DX009 (ip), vehicle: saline with Tween-80
[2] = dose: 200.0 mg/kg/injection, schedule: Q01DX009 (ip), vehicle: saline with Tween-80
[3] = dose: 400.0 mg/kg/injection, schedule: Q01DX009 (ip), vehicle: saline with Tween-80
[4] = dose: 200.0 mg/kg/injection, schedule: Q01DX001 (ip), vehicle: saline
[5] = dose: 400.0 mg/kg/injection, schedule: Q01DX001 (ip), vehicle: saline
[6] = dose: 100.0 mg/kg/injection, schedule: Q04DX003 (ip), vehicle: saline with Tween-80
[7] = dose: 200.0 mg/kg/injection, schedule: Q04DX003 (ip), vehicle: saline with Tween-80
[8] = dose: 400.0 mg/kg/injection, schedule: Q04DX003 (ip), vehicle: saline with Tween-80
[9] = dose: 100.0 mg/kg/injection, schedule: Q01DX009 (ip), vehicle: saline
[10] = dose: 100.0 mg/kg/injection, schedule: Q04DX003 (ip), vehicle: saline
[11] = dose: 25.0 mg/kg/injection, schedule: Q04DX003 (ip), vehicle: saline

Measured: T/C

CN(C(=O)c1ccc(Cl)c(Cl)c1)C(c1ccco1)P(=O)(c1ccccc1)c1ccccc1 (stereo not drawn)
inactive: [1] 90 % of control | dose: 100.0 mg/kg/injection, schedule: Q04DX002 (ip), vehicle: saline with Tween-80 96 % of control | [2] 103 % of control | dose: 200.0 mg/kg/injection, schedule: Q04DX002 (ip), vehicle: saline with Tween-80 90 % of control | [3] 93 % of control | dose: 400.0 mg/kg/injection, schedule: Q04DX002 (ip), vehicle: saline with Tween-80 93 % of control

Cc1ccc2c(C)c3ccc4ccccc4c3c[n+]2c1
inactive: dose: 3.13 mg/kg/injection, schedule: Q01DX009 (ip), vehicle: saline with Tween-80 98 % of control | dose: 6.2 mg/kg/injection, schedule: Q04DX003 (ip), vehicle: Klucel (hydroxypropylcellulose) (HPC) 111 % of control | dose: 6.25 mg/kg/injection, schedule: Q01DX009 (ip), vehicle: saline with Tween-80 107 % of control | dose: 12.5 mg/kg/injection, schedule: Q01DX009 (ip), vehicle: saline with Tween-80 107 % of control and 113 % of control | dose: 12.5 mg/kg/injection, schedule: Q04DX003 (ip), vehicle: Klucel (hydroxypropylcellulose) (HPC) 104 % of control | dose: 25.0 mg/kg/injection, schedule: Q04DX003 (ip), vehicle: Klucel (hydroxypropylcellulose) (HPC) 111 % of control | dose: 50.0 mg/kg/injection, schedule: Q04DX003 (ip), vehicle: Klucel (hydroxypropylcellulose) (HPC) 117 % of control | dose: 100.0 mg/kg/injection, schedule: Q01DX001 (ip), vehicle: saline 123 % of control | [4] 104 % of control | [5] 104 % of control

c1cnc2nc3[nH]c4ccccc4c3nc2c1
inactive: dose: 25.0 mg/kg/injection, schedule: Q01DX009 (ip), vehicle: saline with Tween-80 92 % of control | dose: 50.0 mg/kg/injection, schedule: Q01DX001 (oral), vehicle: saline with Tween-80 107 % of control | dose: 50.0 mg/kg/injection, schedule: Q01DX009 (ip), vehicle: saline with Tween-80 92 % of control and 89 % of control | dose: 50.0 mg/kg/injection, schedule: Q04DX003 (ip), vehicle: saline with Tween-80 96 % of control | dose: 100.0 mg/kg/injection, schedule: Q01DX001 (oral), vehicle: saline with Tween-80 115 % of control | [1] 94 % of control and 91 % of control | [6] 88 % of control | dose: 200.0 mg/kg/injection, schedule: Q01DX001 (oral), vehicle: saline with Tween-80 110 % of control | [2] 92 % of control and 94 % of control | [7] 90 % of control | dose: 400.0 mg/kg/injection, schedule: Q01DX001 (oral), vehicle: saline with Tween-80 108 % of control | [3] 92 % of control | [8] 86 % of control | dose: 800.0 mg/kg/injection, schedule: Q01DX001 (oral), vehicle: saline with Tween-80 105 % of control

N=C(N)/[N+]([O-])=N/O
inactive: dose: 8.0 mg/kg/injection, schedule: Q01DX001 (ip), vehicle: saline + alcohol 97 % of control | dose: 12.0 mg/kg/injection, schedule: Q01DX001 (ip), vehicle: saline + alcohol 100 % of control | dose: 18.0 mg/kg/injection, schedule: Q01DX001 (ip), vehicle: saline + alcohol 111 % of control | dose: 26.0 mg/kg/injection, schedule: Q01DX001 (ip), vehicle: saline + alcohol 98 % of control | dose: 40.0 mg/kg/injection, schedule: Q01DX001 (ip), vehicle: saline + alcohol 103 % of control | dose: 60.0 mg/kg/injection, schedule: Q01DX001 (ip), vehicle: saline + alcohol 95 % of control | dose: 90.0 mg/kg/injection, schedule: Q01DX001 (ip), vehicle: saline + alcohol 101 % of control | dose: 135.0 mg/kg/injection, schedule: Q01DX001 (ip), vehicle: saline + alcohol 100 % of control | dose: 200.0 mg/kg/injection, schedule: Q01DX001 (ip), vehicle: saline + alcohol 108 % of control

O=C(O)c1nsnc1C(=O)O
inactive: [4] 102 % of control | [5] 103 % of control

CSc1ccc(NC(=O)Nc2ccccc2C(N)=O)cc1
inactive: [9] 108 % of control | [10] 92 % of control | dose: 200.0 mg/kg/injection, schedule: Q01DX009 (ip), vehicle: saline 114 % of control | dose: 200.0 mg/kg/injection, schedule: Q04DX003 (ip), vehicle: saline 98 % of control | dose: 400.0 mg/kg/injection, schedule: Q04DX003 (ip), vehicle: saline 95 % of control

CCN(CC)CC(=O)NCC(CCN(C)C)(c1ccc2ccccc2c1)C(C)C (stereo not drawn)
inactive: [11] 99 % of control | dose: 50.0 mg/kg/injection, schedule: Q04DX002 (ip), vehicle: saline 97 % of control | dose: 50.0 mg/kg/injection, schedule: Q04DX003 (ip), vehicle: saline 94 % of control | [9] 98 % of control | dose: 100.0 mg/kg/injection, schedule: Q04DX002 (ip), vehicle: saline 106 % of control | [10] 97 % of control | dose: 200.0 mg/kg/injection, schedule: Q04DX002 (ip), vehicle: saline 86 % of control

CCCc1cc(C)cc2nc(-c3ccccc3)oc12
inactive: [6] 101 % of control | [7] 95 % of control | [8] 89 % of control

O=S(=O)(CBr)CC(Cl)c1ccccc1 (stereo not drawn)
inactive: dose: 100.0 mg/kg/injection, schedule: Q04DX002 (ip), vehicle: Klucel (hydroxypropylcellulose) (HPC) 100 % of control | dose: 200.0 mg/kg/injection, schedule: Q04DX002 (ip), vehicle: Klucel (hydroxypropylcellulose) (HPC) 106 % of control | dose: 400.0 mg/kg/injection, schedule: Q04DX002 (ip), vehicle: Klucel (hydroxypropylcellulose) (HPC) 100 % of control

CC(=O)c1cccc(OC(=O)Oc2cccc(C(C)=O)c2)c1
inactive: dose: 100.0 mg/kg/injection, schedule: Q01DX001 (ip), vehicle: carboxymethylcellulose (CMC) 95 % of control | dose: 200.0 mg/kg/injection, schedule: Q01DX001 (ip), vehicle: carboxymethylcellulose (CMC) 90 % of control | dose: 400.0 mg/kg/injection, schedule: Q01DX001 (ip), vehicle: carboxymethylcellulose (CMC) 95 % of control

O=[N+]([O-])c1nncs1
inactive: dose: 6.25 mg/kg/injection, schedule: Q04DX003 (ip), vehicle: saline 104 % of control | dose: 12.5 mg/kg/injection, schedule: Q04DX003 (ip), vehicle: saline 98 % of control | [11] 101 % of control

CC(=O)/C(=C\c1ccc(Cl)c(Cl)c1)C(=O)c1ccccc1
inactive: dose: 100.0 mg/kg/injection, schedule: Q01DX009 (ip), vehicle: other 97 % of control | dose: 100.0 mg/kg/injection, schedule: Q04DX003 (ip), vehicle: other 95 % of control | dose: 200.0 mg/kg/injection, schedule: Q01DX009 (ip), vehicle: other 103 % of control | dose: 200.0 mg/kg/injection, schedule: Q04DX003 (ip), vehicle: other 91 % of control | dose: 400.0 mg/kg/injection, schedule: Q04DX003 (ip), vehicle: other 93 % of control

COc1ccc([N+](=O)[O-])cc1NC(=O)N(c1ccccc1)C(C)C
inactive: dose: 50.0 mg/kg/injection, schedule: Q01DX009 (ip), vehicle: Klucel (hydroxypropylcellulose) (HPC) 101 % of control | dose: 100.0 mg/kg/injection, schedule: Q01DX009 (ip), vehicle: Klucel (hydroxypropylcellulose) (HPC) 107 % of control | dose: 200.0 mg/kg/injection, schedule: Q01DX009 (ip), vehicle: Klucel (hydroxypropylcellulose) (HPC) 86 % of control
